Values quoted from earlier work in patent publication US20250064731A1, “A LIQUID PHARMACEUTICAL FORMULATION OF CLONIDINE HYDROCHLORIDE” (NOVUMGEN LIMITED, priority 2022, published 2025).

Conditions: after oral administration

## Clc1cccc(Cl)c1N=C1NCCN1 [clonidine, N-(2,6-dichlorophenyl)-4,5-dihydro-1H-imidazol-2-amine]
  absorption from the gastrointestinal tract: almost completely absorbed
  liver metabolism: rapid liver metabolism
